From US20080003606A1, “DIAGNOSIS OF TAMOXIFEN SENSITIVITY” (priority 2004, published 2008)

System: ER positive invasive breast cancer
Assay: Randomized trial of 2 years of adjuvant tamoxifen vs no adjuvant treatment, survival analysed by cyclin D1/A2 expression and CCND1 amplification
Type: in vivo, human
Conditions: for Overall Survival RR / Recurrence Free Survival RR: Cox univariate, ER+, tamoxifen vs control (1.00)
Procedure: During 1984-1991, 564 premenopausal patients or patients under 50 years with stage 11 (pT2 N0 M0, pT1 N1 M0 and pT2, N1 M0) invasive breast cancer were enrolled in a randomized trial of 2 years of adjuvant tamoxifen treatment with a daily dosage of either 40 mg (study center 1) or 20 mg (study center 2) or no adjuvant treatment (detailed in [14]).
All available archived primary tumor specimens were collected (n=500). Areas with invasive cancer were marked on the H&E stained slides and two 0.6 mm tissue cores were taken from each donor block and mounted in a recipient block using an automated arrayer ((ATA-27, Beecher Inc, WI, USA).
For cyclin A2 expression, only the fraction of positively staining nuclei were calculated (405 cases) and subdivided into five groups based on the following score: 0 (0-1%), 1 (2-10%), 2 (11-25%), 3 (26-50%) and 4 (>50%). For cyclin D1, the nuclear fraction and intensity as well as the cytoplasmic staining intensity was evaluated (463 cases). The nuclear fractions were divided into the following five subgroups: 0 (0%), 1 (1-25%), 2 (26-50%), 3 (51-75%) and 4 (>75%). The nuclear and cytoplasmic intensity was evaluated as absent=0, weak=1, intermediate=2 and strong=3. The TMA:s had previously been analyzed immunohistochemically for estrogen- (ER) and progesterone (PR) receptor status (anti-ER Clone 6F11 and anti-PgR Clone 16) using the Ventana Benchmark system (Ventana Medical Systems Inc., AZ, USA). In line with the clinically established cut-off used for hormone receptor assessment, tumors with more than 10% positively staining nuclei were considered positive.
For fluorescence in situ (FISH) analysis of CCND1 gene amplification, two direct-labeled probes were used, LSI cyclin D1 (11q13) SpectrumOrange against CCND1 (11q13) and CEP 11 SpectrumGreen (Vysis Inc., Illinois, USA) against the centromere of chromosome 11. The FISH analysis was performed according to the standard protocol recommended by the manufacturer and according to “LSI® Locus Specific Identifier DNA probes” from Vysis Inc., Illinois. Briefly, tissue sections were de-paraffinized in xylene and alcohol and air-dried. The slides were then microwave-treated in Target Retrieval Solution pH 7.3 (DAKO A/S, Glostrup, Denmark) for 5+5 minutes and treated with 100 μl pepsin (Digest-All 3, Zymed, California, USA) for 8 minutes in 37° C. and washed in water. The de-paraffinized slides were denatured in 70% formamide/2×SSC at 73° C. for 5 minutes followed by dehydration in graded ethanol. A denatured mixture of 1 μl LSI probe, 2 μl pH2O and 7 μl LSI hybridization buffer was added on each slide and incubated at 37° C. overnight. The slides were then washed with 0.4×SSC/0.3% Nonidet P40 at 37±1° C. for 2 minutes followed by a 2×SSC/0.1% NP40 wash at ambient temperature for 1 minute to remove non-specifically bound probe.
For evaluation, the CCND1 gene was considered amplified when the ratio of orange/green was >1. Non-amplified cases were classified as 0, cases with up to 10 copies as 1 and >10 copies as 2.
Baseline prognostic and patient characteristics between the original study group, patients with available FISH data (n=280) and patients without FISH data (n=284) were compared using the chi-square test to exclude the possibility of selection bias. Baseline prognostic and patients characteristics were also compared between amplified and non-amplified cases using the same approach as well as the marker distribution according to trial arm. For evaluation of treatment response, only tumors with >10% ER positivity were included. Kaplan-Meier and log-rank tests and univariate Cox regression analyses were used for recurrence free survival (RFS), breast cancer survival (BCS) and overall survival (OS).

[1] = Multivariate Cox model with A2 NF and interaction variable, adjusted for age, tumor size, NHG, Ki-67 and nodal status
[2] = Multivariate Cox model with CCND1 amplification and interaction variable, adjusted for age, tumor size, NHG, Ki-67 and nodal status
[3] = Multivariate Cox model with D1 NF and interaction variable, adjusted for age, tumor size, NHG, Ki-67 and nodal status
[4] = Multivariate Cox model with D1 NI and interaction variable, adjusted for age, tumor size, NHG, Ki-67 and nodal status
[5] = Multivariate Cox model, adjusted for age, tumor size, NHG, Ki-67 and nodal status

## CC/C(=C(\c1ccccc1)c1ccc(OCCN(C)C)cc1)c1ccccc1 [tamoxifen]
CCND1-amplified tumors without high cyclin D1 protein intensity or >50% cyclin D1 positive cells
  tamoxifen effect: clear adverse tamoxifen effect
CCND1 amplified
  Overall Survival RR: 2.13
  Recurrence Free Survival RR: 2.22
CCND1 not amplified
  Overall Survival RR: 0.43
  Recurrence Free Survival RR: 0.39
Cyclin A2 nf <10%
  Overall Survival RR: 0.72
  Recurrence Free Survival RR: 0.51
Cyclin A2 nf >10%
  Overall Survival RR: 0.92
  Recurrence Free Survival RR: 0.86
Cyclin D1 nf <25%
  Overall Survival RR: 0.65
  Recurrence Free Survival RR: 0.62
Cyclin D1 nf >25%
  Overall Survival RR: 0.78
  Recurrence Free Survival RR: 0.61
Cyclin D1 ni high
  Overall Survival RR: 0.77
  Recurrence Free Survival RR: 0.84
Cyclin D1 ni low/intermediate
  Overall Survival RR: 0.72
  Recurrence Free Survival RR: 0.59
[1]
  Overall survival RR, Treatment tamoxifen vs control: 0.64
  Recurrence free survival RR, Treatment tamoxifen vs control: 0.46
[2]
  Overall survival RR, Treatment tamoxifen vs control: 0.41
  Recurrence free survival RR, Treatment tamoxifen vs control: 0.37
[3]
  Overall survival RR, Treatment tamoxifen vs control: 0.67
  Recurrence free survival RR, Treatment tamoxifen vs control: 0.62
[4]
  Overall survival RR, Treatment tamoxifen vs control: 0.78
  Recurrence free survival RR, Treatment tamoxifen vs control: 0.62
[5]
  Overall survival RR, Interaction variable tamoxifen × A2 nf: 1.40
  Overall survival RR, Interaction variable tamoxifen × CCND1: 5.85
  Overall survival RR, Interaction variable tamoxifen × D1 nf: 1.29
  Overall survival RR, Interaction variable tamoxifen × D1 ni: 1.00
  Recurrence free survival RR, Interaction variable tamoxifen × A2 nf: 1.93
  Recurrence free survival RR, Interaction variable tamoxifen × CCND1: 6.26
  Recurrence free survival RR, Interaction variable tamoxifen × D1 nf: 0.98
  Recurrence free survival RR, Interaction variable tamoxifen × D1 ni: 1.27
Node positive patients, CCND1-amplified tumors
  difference in treatment response, multivariate interaction variable: more then nine-fold
Node positive patients, amplified tumors, treated arm (untreated 68%)
  10 year RFS: 13%
Patients with CCND1-amplified tumors, multivariate interaction analyses
  difference in tamoxifen treatment effect: 6-9 fold
Patients with amplified tumors, tamoxifen treated arm (untreated 62%)
  10 years RFS: 29%
Patients with amplified tumors, tamoxifen treated arm (untreated 74%)
  10 years OS: 56%
Patients with non-amplified tumors, treatment arm (control 44%)
  proportional 10-year recurrence free survival (RFS): 74%
Patients with non-amplified tumors, treatment arm (control 61%)
  10-year overall survival (OS): 78%
Tumors with >10% positive cyclin A2 nuclei
  tamoxifen response: lack of response
Tumors with less than 10% positive cyclin A2 nuclei
  tamoxifen response: responded well
Tumors with strong nuclear cyclin D1 staining intensity
  tamoxifen response regarding recurrence free survival (RFS): did not respond
